Molecular target: mGluR5 receptor (Sus scrofa, UniProt I3LUI7)
Experiment: Affinity for the mGluR5 receptor: inhibition of 3[H]-MPEP binding in pig brain homogenate
Conditions: for inhibition at 10 µM: 10 μM compound, 5 nM 3[H]-MPEP, read-out: mGluR5 receptor inhibition of ^3[H]-MPEP binding [10 μM] in % at a concentration of the example compounds of 10 μM; for IC50: 3[H]-MPEP binding
Protocol: 1. Method for Determining Affinity for the mGluR5 Receptor
Pig brain homogenate is produced by homogenisation (Polytron Pt 3000, Kinematica AG, 10,000 revolutions per minute for 90 seconds) of pig brain hemispheres without medulla, cerebellum and pons in a buffer of pH 8.0 (30 mM Hepes, Sigma, order number H3375+1 tablet Complete Roche Diagnostics, order number 1836145 made up to 100 ml) in a ratio of 1:20 (brain weight/volume) and differential centrifugation at 900×g and 40,000×g. 450 μg of protein from brain homogenate is incubated in each case in 250 μl incubation batches in 96-well microtitre plates with 5 nM 3[H]-MPEP (Tocris, order number R1212) (MPEP=2-methyl-6-[…]) and the compounds to be investigated (10 μM in the test) in the buffer (as above) at room temperature for 60 minutes.
The batches are then filtered with the assistance of a Brandel Cell Harvester (Brandel, Grade Robotic 9600) on Unifilter plates with glass filter mats (Perkin Elmer, order number 6005177) and then washed 3 times with buffer (as above) using 250 μl per sample. The filter plates are then dried for 60 minutes at 55° C. Then 30 μl of Ultima Gold™ scintillating material (Packard BioScience, order number 6013159) is added per well and after 3 hours the samples are measured using the β counter (Microbeta, Perkin Elmer). Nonspecific binding is determined by the addition of 10 μM MPEP (Tocris, order number 1212).

Sequence of mGluR5 receptor (I3LUI7 19-1212): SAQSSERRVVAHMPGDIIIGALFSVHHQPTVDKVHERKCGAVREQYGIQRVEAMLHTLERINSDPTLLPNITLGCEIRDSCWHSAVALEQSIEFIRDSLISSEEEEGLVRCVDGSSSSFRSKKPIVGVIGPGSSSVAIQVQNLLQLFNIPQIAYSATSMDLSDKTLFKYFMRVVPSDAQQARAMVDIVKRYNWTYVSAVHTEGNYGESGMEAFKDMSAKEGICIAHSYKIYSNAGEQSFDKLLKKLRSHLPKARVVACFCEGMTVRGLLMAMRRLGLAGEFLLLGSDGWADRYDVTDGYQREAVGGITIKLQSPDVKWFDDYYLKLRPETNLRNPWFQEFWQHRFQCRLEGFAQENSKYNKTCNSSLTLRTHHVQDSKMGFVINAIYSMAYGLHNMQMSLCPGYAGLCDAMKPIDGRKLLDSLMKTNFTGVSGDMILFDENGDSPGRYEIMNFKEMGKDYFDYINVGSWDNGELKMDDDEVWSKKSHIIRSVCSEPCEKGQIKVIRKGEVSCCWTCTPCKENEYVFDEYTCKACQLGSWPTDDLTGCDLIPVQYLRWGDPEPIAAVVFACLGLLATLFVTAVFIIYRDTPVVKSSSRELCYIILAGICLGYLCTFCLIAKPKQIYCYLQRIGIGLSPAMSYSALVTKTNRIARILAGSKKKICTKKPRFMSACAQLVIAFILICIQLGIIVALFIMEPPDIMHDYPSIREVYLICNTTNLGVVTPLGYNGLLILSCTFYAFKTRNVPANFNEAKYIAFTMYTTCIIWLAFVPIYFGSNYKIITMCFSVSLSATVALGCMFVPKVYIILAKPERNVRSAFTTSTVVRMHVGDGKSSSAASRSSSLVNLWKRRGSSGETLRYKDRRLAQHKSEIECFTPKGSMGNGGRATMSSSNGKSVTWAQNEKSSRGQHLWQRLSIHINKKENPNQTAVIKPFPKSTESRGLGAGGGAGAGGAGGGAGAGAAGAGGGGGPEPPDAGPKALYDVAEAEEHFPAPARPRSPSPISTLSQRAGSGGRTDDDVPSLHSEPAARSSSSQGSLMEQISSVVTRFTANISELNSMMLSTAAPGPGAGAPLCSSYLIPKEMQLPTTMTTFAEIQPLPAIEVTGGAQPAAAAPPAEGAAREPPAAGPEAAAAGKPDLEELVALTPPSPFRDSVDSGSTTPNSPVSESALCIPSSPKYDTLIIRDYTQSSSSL

| SMILES | inhibition at 10 µM [%] | IC50 [nM] |
| --- | --- | --- |
| Cc1cc(C)n2c(NC(C)c3ccccc3)c(-c3ccc(C#Cc4ccccc4)s3)nc2c1 (stereo not drawn) [Example 29, [5,7-dimethyl-2-(5-phenylethynyl-thiophen-2-yl)-imidazo[1,2-a]pyridin-3-yl]-(1-phenyl-ethyl)-amine] | 87 | – |
| CC(Nc1c(-c2ccc(C#Cc3ccccc3)s2)nc2c(OCc3ccccc3)cccn12)c1ccccc1 (stereo not drawn) [Example 30, [8-benzyloxy-2-(5-phenylethynyl-thiophen-2-yl)-imidazo[1,2-a]pyridin-3-yl]-(1-phenyl-ethyl)-amine] | 73 | – |
| CC(Nc1c(-c2ccc(C#Cc3ccccc3)s2)nc2cnccn12)c1ccccc1 (stereo not drawn) [Example 31, (1-phenyl-ethyl)-[2-(5-phenylethynyl-thiophen-2-yl)-imidazo[1,2-a]pyrazin-3-yl]-amine] | – | 530 |
| Fc1ccc(Nc2c(-c3ccc(C#Cc4ccccc4)s3)nc3cc(-c4ccccc4)ccn23)cc1Cl [Example 33, (3-chloro-4-fluoro-phenyl)-[7-phenyl-2-(5-phenylethynyl-thiophen-2-yl)-imidazo[1,2-a]pyridin-3-yl]-amine] | 98 | – |
| Cc1cccn2c(NC(C)c3ccccc3)c(-c3ccc(C#Cc4ccccc4)s3)nc12 (stereo not drawn) [Example 35, [8-methyl-2-(5-phenylethynyl-thiophen-2-yl)-imidazo[1,2-a]pyridin-3-yl]-(1-phenyl-ethyl)-amine] | 95 | – |
| Cc1ccn2c(NC(C)c3ccccc3)c(-c3ccc(C#Cc4ccccc4)s3)nc2n1 (stereo not drawn) [Example 36, [7-methyl-2-(5-phenylethynyl-thiophen-2-yl)-imidazo[1,2-a]pyrimidin-3-yl]-(1-phenyl-ethyl)-amine] | 100 | – |
| COc1cccc(Nc2c(-c3ccc(C#Cc4ccccc4)s3)nc3cc(C)cc(C)n23)c1 [Example 42, [5,7-dimethyl-2-(5-phenylethynyl-thiophen-2-yl)-imidazo[1,2-a]pyridin-3-yl]-(3-methoxy-phenyl)-amine] | 93 | – |
| CC(C)(C)c1ccn2c(Nc3ccc(F)c(Cl)c3)c(-c3ccc(C#Cc4ccccc4)s3)nc2c1 [Example 46, [7-tert-butyl-2-(5-phenylethynyl-thiophen-2-yl)-imidazo[1,2-a]pyridin-3-yl]-(3-chloro-4-fluoro-phenyl)-amine] | 76 | – |
| Fc1ccc(Nc2c(-c3ccc(C#Cc4ccccc4)s3)nc3cc(CCCc4ccccc4)ccn23)c(F)c1 [Example 50, (2,4-difluoro-phenyl)-[2-(5-phenylethynyl-thiophen-2-yl)-7-(3-phenyl-propyl)-imidazo[1,2-a]pyridin-3-yl]-amine] | 90 | – |
| CC(C)(C)Nc1c(-c2cc(C#Cc3ccccc3)cs2)nc2cnccn12 [Example 55, tert-butyl-[2-(4-phenylethynyl-thiophen-2-yl)-imidazo[1,2-a]pyrazin-3-yl]-amine] | 77 | – |
| CC(C)(C)CC(C)(C)Nc1c(-c2ccc(C#Cc3ccccc3)s2)nc2cnccn12 [Example 56, [2-(5-phenylethynyl-thiophen-2-yl)-imidazo[1,2-a]pyrazin-3-yl]-(1,1,3,3-tetramethyl-butyl)-amine] | 100 | – |
| CCCCNc1c(-c2cc(C#Cc3ccccc3)cs2)nc2cnccn12 [Example 57, butyl-[2-(4-phenylethynyl-thiophen-2-yl)-imidazo[1,2-a]pyrazin-3-yl]-amine] | 94 | – |
| CC(C)(C)CC(C)(C)Nc1c(-c2ccc(C#Cc3ccccc3)s2)nc2ccccn12 [Example 59, [2-(5-phenylethynyl-thiophen-2-yl)-imidazo[1,2-a]pyridin-3-yl]-(1,1,3,3-tetramethyl-butyl)-amine] | – | 2070 |
| CC(C)(C)CC(C)(C)Nc1c(-c2ccc(C#Cc3cccnc3)s2)nc2cnccn12 [Example 60, [2-(5-Pyridin-3-ylethynyl-thiophen-2-yl)-imidazo[1,2-a]pyrazin-3-yl]-(1,1,3,3-tetramethyl-butyl)-amine] | – | 1200 |
| CC(C)(C)CC(C)(C)Nc1c(-c2ccc(C#Cc3ccncc3)s2)nc2cnccn12 [Example 61, [2-(5-pyridin-4-ylethynyl-thiophen-2-yl)-imidazo[1,2-a]pyrazin-3-yl]-(1,1,3,3-tetramethyl-butyl)-amine] | – | 42.5 |

Next, values leading:

| inhibition at 10 µM [%] | IC50 [nM] | SMILES |
| --- | --- | --- |
| 98 | – | Cc1ccn2c(NC(C)c3ccccc3)c(-c3ccc(C#Cc4ccccc4)s3)nc2c1 (stereo not drawn) [Example 28, [7-methyl-2-(5-phenylethynyl-thiophen-2-yl)-imidazo[1,2-a]pyridin-3-yl]-(1-phenyl-ethyl)-amine] |
| 98 | – | Cc1cc(C)n2c(NCc3ccccc3Cl)c(-c3ccc(C#Cc4ccccc4)s3)nc2c1 [Example 32, (2-chloro-benzyl)-[5,7-dimethyl-2-(5-phenylethynyl-thiophen-2-yl)-imidazo[1,2-a]pyridin-3-yl]-amine] |
| 98 | – | COc1ccc(CNc2c(-c3ccc(C#Cc4ccccc4)s3)nc3nc(C)ccn23)cc1 [Example 34, (4-methoxy-benzyl)-[7-methyl-2-(5-phenylethynyl-thiophen-2-yl)-imidazo[1,2-a]pyrimidin-3-yl]-amine] |
| 85 | – | COc1ccccc1CNc1c(-c2ccc(C#Cc3ccccc3)s2)nc2cc(C)ccn12 [Example 37, (2-methoxy-benzyl)-[7-methyl-2-(5-phenylethynyl-thiophen-2-yl)-imidazo[1,2-a]pyridin-3-yl]-amine] |
| 87 | – | COc1ccccc1CNc1c(-c2ccc(C#Cc3ccccc3)s2)nc2ccccn12 [Example 38, (2-methoxy-benzyl)-[2-(5-phenylethynyl-thiophen-2-yl)-imidazo[1,2-a]pyridin-3-yl]-amine] |
| 72 | – | Clc1ccccc1CNc1c(-c2ccc(C#Cc3ccccc3)s2)nc2ccccn12 [Example 39, (2-chloro-benzyl)-[2-(5-phenylethynyl-thiophen-2-yl)-imidazo[1,2-a]pyridin-3-yl]-amine] |
| 87 | – | COc1ccccc1CNc1c(-c2ccc(C#Cc3ccccc3)s2)nc2nc(C)ccn12 [Example 40, (2-methoxy-benzyl)-[7-methyl-2-(5-phenylethynyl-thiophen-2-yl)-imidazo[1,2-a]pyrimidin-3-yl]-amine] |
| 73 | – | COc1cccc(Nc2c(-c3ccc(C#Cc4ccccc4)s3)nc3ccc(C)cn23)c1 [Example 41, (3-methoxy-phenyl)-[6-methyl-2-(5-phenylethynyl-thiophen-2-yl)-imidazo[1,2-a]pyridin-3-yl]-amine] |
| 83 | – | COc1cccc(Nc2c(-c3ccc(C#Cc4ccccc4)s3)nc3cnccn23)c1 [Example 43, (3-methoxy-phenyl)-[2-(5-phenylethynyl-thiophen-2-yl)-imidazo[1,2-a]pyrazin-3-yl]-amine] |
| 75 | – | CCc1ccn2c(NCc3ccccc3OC)c(-c3ccc(C#Cc4ccccc4)s3)nc2c1 [Example 44, [7-ethyl-2-(5-phenylethynyl-thiophen-2-yl)-imidazo[1,2-a]pyridin-3-yl]-(2-methoxy-benzyl)-amine] |
| 93 | – | CCc1ccn2c(NCc3ccccc3Cl)c(-c3ccc(C#Cc4ccccc4)s3)nc2c1 [Example 45, (2-chloro-benzyl)-[7-ethyl-2-(5-phenylethynyl-thiophen-2-yl)-imidazo[1,2-a]pyridin-3-yl]-amine] |
| 79 | – | COc1cccc(CNc2c(-c3ccc(C#Cc4ccccc4)s3)nc3nc(C)ccn23)c1 [Example 47, (3-methoxy-benzyl)-[7-methyl-2-(5-phenylethynyl-thiophen-2-yl)-imidazo[1,2-a]pyrimidin-3-yl]-amine] |
| 82 | – | CCc1ccn2c(Nc3ccccc3F)c(-c3ccc(C#Cc4ccccc4)s3)nc2c1 [Example 48, [7-ethyl-2-(5-phenylethynyl-thiophen-2-yl)-imidazo[1,2-a]pyridin-3-yl]-(2-fluoro-phenyl)-amine] |
| 85 | – | CC(C)(C)c1ccn2c(Nc3ccccc3F)c(-c3ccc(C#Cc4ccccc4)s3)nc2c1 [Example 49, [7-tert-butyl-2-(5-phenylethynyl-thiophen-2-yl)-imidazo[1,2-a]pyridin-3-yl]-(2-fluoro-phenyl)-amine] |
| 89 | – | Cc1ccn2c(NCc3ccc(F)cc3)c(-c3ccc(C#Cc4ccccc4)s3)nc2c1 [Example 51, (4-fluoro-benzyl)-[7-methyl-2-(5-phenylethynyl-thiophen-2-yl)-imidazo[1,2-a]pyridin-3-yl]-amine] |
| 75 | – | Cc1cc(C)n2c(NCc3ccc(F)cc3)c(-c3ccc(C#Cc4ccccc4)s3)nc2c1 [Example 52, [5,7-dimethyl-2-(5-phenylethynyl-thiophen-2-yl)-imidazo[1,2-a]pyridin-3-yl]-(4-fluoro-benzyl)-amine] |
| 80 | – | CCc1ccn2c(NCc3cccc(C(F)(F)F)c3)c(-c3ccc(C#Cc4ccccc4)s3)nc2c1 [Example 53, [7-ethyl-2-(5-phenylethynyl-thiophen-2-yl)-imidazo[1,2-a]pyridin-3-yl]-(3-trifluoromethyl-benzyl)-amine] |
| 69 | – | CC(C)c1ccn2c(NCc3cccc(C(F)(F)F)c3)c(-c3ccc(C#Cc4ccccc4)s3)nc2c1 [Example 54, [7-isopropyl-2-(5-phenylethynyl-thiophen-2-yl)-imidazo[1,2-a]pyridin-3-yl]-(3-trifluoromethyl-benzyl)-amine] |

Reference: patent US7420056B2, “Substituted bicyclic imidazo-3-ylamine compounds” (Gruenenthal GmbH, priority 2004, dated 2008)
